Series [1] has as its target T1, Muscarinic acetylcholine receptor M1 (Homo sapiens) (UniProt P11229).
T1 sequence (whole entry): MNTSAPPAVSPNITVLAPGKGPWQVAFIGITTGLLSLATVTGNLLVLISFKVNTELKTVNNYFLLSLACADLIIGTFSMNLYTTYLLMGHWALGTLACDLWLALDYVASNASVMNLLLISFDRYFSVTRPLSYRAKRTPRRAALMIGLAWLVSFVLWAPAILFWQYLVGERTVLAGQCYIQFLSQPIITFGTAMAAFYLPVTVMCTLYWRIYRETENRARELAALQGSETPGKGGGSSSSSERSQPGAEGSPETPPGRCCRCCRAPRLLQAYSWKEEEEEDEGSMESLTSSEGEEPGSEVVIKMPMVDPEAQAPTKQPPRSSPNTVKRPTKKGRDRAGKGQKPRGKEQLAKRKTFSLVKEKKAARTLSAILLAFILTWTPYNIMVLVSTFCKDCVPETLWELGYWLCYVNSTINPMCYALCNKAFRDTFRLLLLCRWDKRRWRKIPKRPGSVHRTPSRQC
The series is described as follows: Positive allosteric modulation of human muscarinic acetylcholine M1 receptor expressed in CHO cells in presence of acetylcholine at EC20 concentration by calcium mobilization assay relative to acetylcholine. The settings on record: time 3.5 min. The format is functional, cell-based.

The target in series [2] is T2, Muscarinic acetylcholine receptor M1 (Homo sapiens, UniProt P11229).
T2 sequence (P11229 whole entry): T1 sequence (whole entry)
The series is described as follows: Positive allosteric modulation of human muscarinic acetylcholine M1 receptor expressed in CHO cells in presence of acetylcholine at EC20 concentration by calcium mobilization assay. The format is functional, cell-based.

For series [3], the target named is T3, Muscarinic acetylcholine receptor M2 (Homo sapiens, UniProt P08172).
T3 sequence (P08172 whole entry): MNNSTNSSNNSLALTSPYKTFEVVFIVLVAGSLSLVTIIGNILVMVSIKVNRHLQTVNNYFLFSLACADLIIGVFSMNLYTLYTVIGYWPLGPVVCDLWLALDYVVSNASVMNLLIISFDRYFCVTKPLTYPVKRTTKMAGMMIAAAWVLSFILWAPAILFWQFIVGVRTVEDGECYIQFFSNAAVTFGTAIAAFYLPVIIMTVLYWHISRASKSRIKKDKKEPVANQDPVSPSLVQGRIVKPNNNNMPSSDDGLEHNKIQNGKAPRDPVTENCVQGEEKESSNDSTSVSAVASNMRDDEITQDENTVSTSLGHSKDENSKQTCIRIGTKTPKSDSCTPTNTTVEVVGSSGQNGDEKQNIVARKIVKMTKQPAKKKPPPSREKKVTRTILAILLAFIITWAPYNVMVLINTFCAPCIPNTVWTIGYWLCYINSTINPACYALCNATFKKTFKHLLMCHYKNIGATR
The series is described as follows: Positive allosteric modulation of human muscarinic acetylcholine M2/Gqi5 receptor expressed in CHO cells in presence of acetylcholine at EC20 concentration by calcium mobilization assay. In kind it is functional, cell-based.

In series [4] the target is Muscarinic acetylcholine receptor M3 (Homo sapiens, UniProt P20309). The series is described as follows: Positive allosteric modulation of human muscarinic acetylcholine M3 receptor expressed in CHO cells in presence of acetylcholine at EC20 concentration by calcium mobilization assay. The format is functional, cell-based.
Chain of Muscarinic acetylcholine receptor M3 (P20309 whole entry): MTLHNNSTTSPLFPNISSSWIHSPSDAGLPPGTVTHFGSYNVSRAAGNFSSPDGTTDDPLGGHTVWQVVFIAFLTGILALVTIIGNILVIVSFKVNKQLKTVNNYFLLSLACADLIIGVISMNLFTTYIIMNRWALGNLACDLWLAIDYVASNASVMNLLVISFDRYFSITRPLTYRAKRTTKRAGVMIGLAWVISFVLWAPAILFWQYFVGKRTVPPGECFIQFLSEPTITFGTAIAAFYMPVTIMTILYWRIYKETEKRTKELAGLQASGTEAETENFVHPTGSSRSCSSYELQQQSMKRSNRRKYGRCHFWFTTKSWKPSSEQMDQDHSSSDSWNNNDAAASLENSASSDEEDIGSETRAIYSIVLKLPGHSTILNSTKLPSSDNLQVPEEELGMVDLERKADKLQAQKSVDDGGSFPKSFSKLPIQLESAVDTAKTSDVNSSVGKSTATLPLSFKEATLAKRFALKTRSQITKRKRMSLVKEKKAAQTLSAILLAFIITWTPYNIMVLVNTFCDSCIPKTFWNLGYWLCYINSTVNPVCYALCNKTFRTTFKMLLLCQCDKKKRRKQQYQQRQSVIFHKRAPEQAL
Series [5] addresses T4, Muscarinic acetylcholine receptor M5 (Homo sapiens, UniProt P08912).
T4 sequence (P08912 whole entry): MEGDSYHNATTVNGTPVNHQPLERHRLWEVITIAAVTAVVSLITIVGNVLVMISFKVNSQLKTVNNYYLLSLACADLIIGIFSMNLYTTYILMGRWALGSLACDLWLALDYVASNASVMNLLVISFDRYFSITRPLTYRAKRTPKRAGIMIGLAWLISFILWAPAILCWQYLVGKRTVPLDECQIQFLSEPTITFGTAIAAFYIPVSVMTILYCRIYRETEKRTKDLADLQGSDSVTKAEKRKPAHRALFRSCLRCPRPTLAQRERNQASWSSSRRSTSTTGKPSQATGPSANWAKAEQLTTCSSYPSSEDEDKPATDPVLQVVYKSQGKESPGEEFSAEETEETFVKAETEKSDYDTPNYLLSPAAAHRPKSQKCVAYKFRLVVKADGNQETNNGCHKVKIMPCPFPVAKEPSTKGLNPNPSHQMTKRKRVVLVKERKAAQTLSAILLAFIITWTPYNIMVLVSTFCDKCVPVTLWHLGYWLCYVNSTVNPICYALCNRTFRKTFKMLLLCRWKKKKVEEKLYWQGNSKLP
The series is described as follows: Positive allosteric modulation of human muscarinic acetylcholine M5 receptor expressed in CHO cells in presence of acetylcholine at EC20 concentration by calcium mobilization assay. The format is functional, cell-based.

The nature of series [6]: Protein binding in rat plasma assessed as unbound fraction measured after 4 hrs by equilibrium dialysis assay. In kind it is ADME, cell-free.
Series [7] in a line: Protein binding in rat brain assessed as unbound fraction measured after 4 hrs by equilibrium dialysis assay. The format is ADME, tissue-based.
The nature of series [8]: Protein binding in human plasma assessed as unbound fraction measured after 4 hrs by equilibrium dialysis assay. The format is ADME, cell-free.
The nature of series [9]: Brain to plasma partition coefficient, Kp of the compound in rat at 0.20 mg/kg, iv administered as cassette dose measured at 0.25 hrs. The following applies: 0.2 mg/kg. In kind it is ADME, organism-based.
A short description of series [10]: Unbound brain-to-plasma concentration ratio of the compound in rat at 0.20 mg/kg, iv administered as cassette dose measured at 0.25 hrs. In kind it is ADME, organism-based. The following applies: 0.2 mg/kg.
[11] abbreviates: filed as positive allosteric modulator.

Consider `Cn1cc2cc(-c3cc(F)c(CN4Cc5ccsc5C4=O)c(F)c3)ccc2n1`, for which the maximal effect (Emax) in series [1] (setting [11]) was determined as 40%.
On to `Cn1cc2c(-c3cc(F)c(CN4Cc5ccsc5C4=O)c(F)c3)cccc2n1`, for which, in series [2], the EC50 was 2.16 µM. The maximum response (Emax) in series [1] (setting [11]) was determined as 66%.
In the case of `Cc1[nH]cc2c1C(=O)N(Cc1c(F)cc(-c3cccc4nn(C)cc34)cc1F)C2`, the concentration for a half-maximal effect (EC50) in [2] was above 10 µM.
Consider `Cn1cc2c(-c3cc(F)c(CN4Cc5cn(CC6CCCO6)nc5C4=O)c(F)c3)cccc2n1` (configuration not stated), for which, in [2], the EC50 was found to be 3.54 µM. Also, the Emax in [1] (setting [11]) is 61%.
The corresponding values for `Cn1cc2cc(-c3cc(F)c(CN4Cc5cnn(CC6CCCO6)c5C4=O)c(F)c3)ccc2n1` (configuration not stated) are 1.66 µM and 79%.
Take `Cn1cc2c(-c3cc(F)c(CN4Cc5cnn(CCO)c5C4=O)c(F)c3)cccc2n1`: the EC50 in [2] came out at 1.51 µM. In addition, the maximum response (Emax) in series [1] (setting [11]) is 84%.
The matching figures for `COCCn1ncc2c1C(=O)N(Cc1c(F)cc(-c3cccc4nn(C)cc34)cc1F)C2`: 3.93 µM and 84%.
On to `Cn1cc2c(-c3cc(F)c(CN4Cc5ccn(CCCO)c5C4=O)c(F)c3)cccc2n1`, for which the Emax in series [1] (setting [11]) was 67%.
The same measure, in the same setting: with `Cn1cc(-c2ccc(CN3Cc4ccsc4C3=O)c(F)c2)cn1` the figure was 67%.
For the compound `Cn1cc2c(-c3cc(F)c(CN4Cc5ocnc5C4=O)c(F)c3)cccc2n1`, the concentration for a half-maximal effect (EC50) in [2] was above 10 µM.
Turning to `Cn1cc2cccc(-c3cc(F)c(CN4Cc5cnn(CC6CCCO6)c5C4=O)c(F)c3)c2n1` (configuration not stated), the Emax in series [1] (setting [11]) turned out to be 66%.
As for `Cc1nn(C)cc1-c1cc(F)c(CN2Cc3cnn(CC4CCCO4)c3C2=O)c(F)c1` (configuration not stated), the Emax in series [1] (setting [11]) is 77%.
Regarding `O=C1c2scnc2CN1Cc1c(F)cc(-c2ccc3ncccc3c2)cc1F`, in series [2], the EC50 came out at 8 µM. Moreover, in series [1], the Emax was determined as 30%.
Regarding `Cn1cc2c(-c3cc(F)c(CN4Cc5cn(CCN6CCCC6)nc5C4=O)c(F)c3)cccc2n1`, the maximal effect (Emax) in series [1] (setting [11]) worked out at 57%.
With `Cn1cc2cc(-c3ccc(CN4Cc5sccc5C4=O)c(F)c3)ccc2n1`, the Emax in series [1] (setting [11]) came out at 51%.
As to `Cn1cc2c(-c3cc(F)c(CN4Cc5cnn(CC6CCCO6)c5C4=O)c(F)c3)cccc2n1` (configuration not stated), the concentration giving a half-maximal response (EC50) in series [2] was 1.12 µM; in series [3], above 10 µM; in series [4] it was above 10 µM; in series [5] it was above 10 µM. Also, the Emax in [1] (setting [11]) is 85%. The Fu was 0.027 in series [6], 0.019 in [7] and 0.025 in series [8].
For the compound `Cn1cc2c(-c3cc(F)c(CN4Cc5cnn(CCN6CCCC6)c5C4=O)c(F)c3)cccc2n1`, in [2], the EC50 came to 0.739 µM. Further, the maximal response (Emax) in series [1] (setting [11]) worked out at 87%.
As to `Cn1cc2c(-c3ccc(CN4Cc5sccc5C4=O)c(F)c3)cccc2n1`, in series [1] (setting [11]), the maximal response (Emax) is 67%.
In the case of `Cn1cc2cc(-c3ccc(CN4Cc5ncsc5C4=O)c(F)c3)ccc2n1`, the concentration for a half-maximal effect (EC50) in [2] is 2 µM; in [3], above 10 µM; in [4] it was above 10 µM; in series [5], above 10 µM. Besides, the Emax in [1] (setting [11]) came out at 60%. This compound also had a partition ratio (Kp) in series [9] of 2.1. In addition, the “K(p,uu,brain)” value in series [10] stood at 2.2. Besides, the Fu in series [6] stood at 0.04; in series [7] it was 0.042; in [8], 0.05.
On to `Cn1cc2c(-c3cc(F)c(CN4Cc5nc[nH]c5C4=O)c(F)c3)cccc2n1`, for which the EC50 in series [2] was above 10 µM.
For the compound `Cn1cc2c(-c3cc(F)c(CN4Cc5ccn(CCN6CCCC6)c5C4=O)c(F)c3)cccc2n1`, in series [1] (setting [11]), the Emax amounted to 56%.
On to `Cn1cc2c(-c3cc(F)c(CN4Cc5ncoc5C4=O)c(F)c3)cccc2n1`, for which the EC50 in [2] was above 10 µM.
Take `Cn1cc2c(-c3cc(F)c(CN4Cc5ccn(CC6CCCO6)c5C4=O)c(F)c3)cccc2n1` (configuration not stated): in [1] (setting [11]), the Emax worked out at 58%.
Still for that read-out and setting: with `Cc1cc(-c2cc(F)c(CN3Cc4cnn(CC5CCCO5)c4C3=O)c(F)c2)ccn1` (configuration not stated) the figure was 65%; with `Cn1cc2cc(-c3cc(F)c(CN4Cc5occc5C4=O)c(F)c3)ccc2n1`, 45%; with `Cn1cnc2ccc(-c3cc(F)c(CN4Cc5sccc5C4=O)c(F)c3)cc21`, 60%.
For the compound `Cn1cc2cc(-c3cc(F)c(CN4Cc5sccc5C4=O)c(F)c3)ccc2n1`, the maximal response (Emax) in series [1] (setting [11]) stood at 59%.
Consider `Cn1cc2c(-c3cc(F)c(CN4Cc5sccc5C4=O)c(F)c3)cccc2n1`, for which the EC50 in [2] was determined as 1.92 µM. Besides, the maximal response (Emax) in [1] (setting [11]) was 75%.

The record behind these values is ChEMBL document CHEMBL4811299, “Discovery of a novel class of heteroaryl-pyrrolidinones as positive allosteric modulators of the muscarinic acetylcholine receptor M1” (Bioorg Med Chem Lett, 2021).
